Data taken from US6800761B1, “Form of irbesartan, methods for obtaining said form and pharmaceutical compositions containing same” (Sanofi-Synthelabo, priority 1998, dated 2004).
Where two headings read alike, the source gives them in different places.

How the values were obtained:
[1] = for flowability index: Carr method: compressibility, angle of repose, spatula angle, cohesion
Description: The flowability index is calculated by the Carr method (R. Carr: Chemical Engineering, Jan. 18, 1965, page 163-168) and takes into account the results of four experimental values: compressibility, angle of repose, spatula angle and cohesion.

[2] = for packing density: Hosokawa machine, 180 gravity drops
[3] = as indicated in EP 708 103; cited from earlier work
[4] = brick habit versus acicular habit

Row | SMILES | flowability index ([1]; listed as crystals of acicular habit) | packing density ([2]; listed as crystals of the acicular form A) | stability and hygroscopicity of the crystals [3] | flowability index ([1]; listed as crystals of brick habit) | increase in the flowability index with respect to the acicular habit [1, 4] [%] | packing density ([2]; listed as irbesartan crystals having the new crystal habit) | increase in the packing density with respect to the acicular habit [2, 4] [%]
1 | CCCCC1=NC2(CCCC2)C(=O)N1Cc1ccc(-c2ccccc2-c2nnn[nH]2)cc1 [crystals of irbesartan in acicular form A] [2-n-butyl-4-spirocyclopentane-1-[(2′-(tetrazol-5-yl)biphenyl-4-yl)methyl]-2-imidazolin-5-one, reference compound] | about 10 | about 0.35 kg/M^3 | stable, non-hygroscopic | – | – | – | –
2 | CCCCC1=NC2(CCCC2)C(=O)N1Cc1ccc(-c2ccccc2-c2nnn[nH]2)cc1 [irbesartan crystals in the brick habit, 2-n-butyl-4-spirocyclopentane-1-[(2′-(tetrazol-5-yl)biphenyl-4-yl)methyl]-2-imidazolin-5-one] | – | – | – | about 30 | 50 | about 0.5 kg m^3 | 50
